Patent publication US20160083397A1, “PARTHENOLIDE DERIVATIVES AND THEIR MODULATION OF PROCESSES CONTROLLED BY REGULATED TRANSLATION” (THE BOARD OF TRUSTEES OF THE UNIVERSITY OF ARKANSAS, priority 2013, published 2016)

Experiments:
MCF-7 cells = experiment: Mammosphere formation, MCF-7; type: cell-based; details: compound present first 3 days, scored day 14 (P2), 50, 5 and 0.5 μM
Excerpt: Mammosphere culture growth presents a useful indicator of the presence of breast cancer cells with stem cell-like properties. Breast cancer cell lines grown as mammospheres (under non-adherent plating conditions) recapitulate the three-dimensional organization of tumors. Importantly, assessment of stem cell self-renewal capacity can be achieved through dispersion of mammospheres to single cells and subsequent limited dilution replating. To determine whether PNR-5-46, PNR-5-41, or JVM-20 inhibited mammosphere formation in this system, […], and then cultured in the absence of the test compound. At day 7, mammospheres were collected, dispersed to single cells and replated at limiting dilution (P1). Spheroids were scored at day 14 (P2). Mammosphere forming units (MFUs) are defined as spheroid bodies >100 μm (MCF-7 cells) or >65 μm (MDA MB231 cells) diameter after 7 (P1) or 14 (P2) days growth in non-adherent culture.

[1] = test system: glioblastomoa cell line U87; experiment: Neurosphere formation, U87; type: cell-based; details: lowest dose tested 0.5 μM
Experimental: (§1) The activity of the three test compounds to inhibit neurosphere formation was also tested in a neuroblastoma cell line SHSY5Y and a glioblastomoa cell line U87. All three compounds attenuated neurosphere formation in both cell lines, to varying degrees of efficacy (FIG. 2A,B). […] None of the compounds affected cell viability.

Xenopus oocytes = experiment: Xenopus oocyte maturation assay; type: cell-based; details: for Xenopus Oocyte Maturation Assay, With Progesterone: test compound 100 μM, progesterone 2 μg/mL, inhibitor = slowed rate of progesterone-dependent GVBD by 20% or more
Excerpt: An in vivo Xenopus oocyte maturation assay was used to screen the compounds for their ability to modulate the activity of cell cycle control proteins, mRNA translational control proteins, and/or proteins involved in signaling pathways. In this assay, oocyte maturation (or cell cycle progression) is monitored phenotypically using an image capture system. Oocyte maturation is correlated with the appearance of a white spot at the animal pole of the darkly pigmented animal hemisphere of the oocyte. The white spot appears because the germinal vesicle (i.e., the large nucleus of the oocyte) migrates to the animal pole prior to meiotic germinal vesicle breakdown (GVBD).
Immature stage VI Xenopus oocytes were transferred to wells of a flat bottom 96-well plate containing about 178 μL of L15 culture media. The oocytes were transferred using wide mouth 200 μL pipette tips with minimal transfer of culture medium (e.g., about 20 μL). Generally, the oocytes oriented with the pigmented animal hemisphere facing up due to the higher density of the yolk-containing vegetal hemisphere. Incorrectly orientated oocytes were gently manipulated using a drawn-out capillary tube to rotate them into the correct orientation.
Forty-four test compounds were dissolved in DMSO to make 100× stock solutions. The test compounds were added to the appropriate wells at a final concentration of 100 μM (and 1% DMSO). Control oocytes were exposed to 1% DMSO only (generally the first and last wells of a plate contained the untreated, control oocytes). Sixteen hours later, progesterone was added to each well to stimulate progesterone-dependent oocyte maturation. For this, 2 μL of 1000× stock solution (2 mg/mL in ethanol) was added to the appropriate wells to yield a final concentration of 2 μg/mL. The rate of maturation in the control oocytes (i.e., those in the first and last wells) served as an intra-assay control for time taken for progesterone addition across the multi-well plate.
The 96-well plate was imaged from above (i.e., top-down) using a 36-megapixel Nikon D800 SLR camera with an AF Micro Nikkor 60 mm, f/2.8 lens, mounted on a dedicated copy stand (with adjustable flanking light sources). The plate was imaged prior to and after addition of progesterone (i.e., images were taken at regular intervals over a period of 7 hours). The high resolution images were digitally zoomed after capture to analyze the maturation status of oocytes in individual wells of the plate. Test compounds that slowed the rate of progesterone-dependent GVBD by 20% or more were classified as inhibitors (assessed relative to the time 50% of the population of control, vehicle treated oocytes had undergone GVBD (GVBD50)).
To determine whether the test compounds were able to activate oocyte maturation in a progesterone-independent manner, oocytes were incubated in the presence of the test compound (dissolved in DMSO) or DMSO only. The oocytes were imaged at regular intervals for the evidence of GVBD, or subsets of oocytes were removed at predetermined times and the activation status of key cell cycle control proteins (e.g., pMAP kinase, pCcd2, etc.) was analyzed by Western blotting. For example, activation of pMAP kinase is associated with increased phosphorylation whereas activation of pCdc2 is associated with decreased phosphorylation. Compounds were classified as an activator if they were able to induce GVBD in the absence of added progesterone. Further, compounds were classified as accelerators if they accelerated the rate of progesterone-stimulated GVBD, but were unable to induce GVBD in the absence of progesterone. The criteria for test compounds to be considered accelerators is that they must increase the rate of progesterone-dependent GVBD by 20% or more at one dose (assessed relative to the time 50% of the population of control, vehicle treated oocytes had undergone GVBD (GVBD50)).

[2] = test system: neuroblastoma cell line SHSY5Y; experiment: Neurosphere formation, SHSY5Y; type: cell-based; details: lowest dose tested 0.5 μM
Experimental: as §1

For `C[C@@]12CCC=C(CO)C3C[C@H]4/C(=C\c5ccccc5)C(=O)O[C@@H]4[C@@]31O2` (stereo partly shown), the melting point was 115 to 117 °C.

With “13-(4-aminophenyl)parthenolide [PNR-5-41]” the “mammosphere formation relative to DMSO-treated control cells” value (MCF-7 cells) was “did not”, the “neurosphere formation / stem cell self-renewal” value [1] was “Significant inhibition” and the “Xenopus Oocyte Maturation Assay, With Progesterone” value (Xenopus oocytes) was “Inhibitor”. For the same compound, the “neurosphere formation / stem cell self-renewal” value [2] was “Significant inhibition”.

With `C/C1=C\CC[C@@]2(C)O[C@H]2[C@H]2OC(=O)[C@@H](CNc3nc4ccccc4[nH]3)[C@@H]2CC1` [JVM-9, 13-(2-aminobenzimidazole)parthenolide] the “Xenopus Oocyte Maturation Assay, Without Progesterone” value (Xenopus oocytes; no progesterone, activator = able to induce GVBD in the absence of added progesterone) was “Activator”.

For `CC1=CCCC2(C)OC2C2OC(=O)C(CNCCN3CCOCC3)C2CC1` (stereo not shown) [JVM-11, 13-(aminoethylmorpholino)parthenolide], the “Xenopus Oocyte Maturation Assay, With Progesterone” value (Xenopus oocytes) was “Inhibitor”.
